Assay results reported in US11820822B2, “Methods for sensitizing cancer cells to T cell-mediated killing by modulating molecular pathways” (DANA-FARBER CANCER INSTITUTE, INC., priority 2017, dated 2023).

How the values were obtained:
[1] = test system: B16F10-Cas9 cells pulsed with SIINFEKL peptide, co-cultured with OT-I T cells; test: Genome-scale CRISPR-Cas9 screen, selection with OT-I T cells; type: cell-based, mouse; conditions: Table 3; B16F10-Cas9 cells pulsed with SIINFEKL, co-cultured with OT-I T cells 1:1 for one day; negative = depleted, positive = enriched
[2] = test system: B16F10-Cas9 cells co-cultured with Pmel-1 T cells; test: Genome-scale CRISPR-Cas9 screen, selection with Pmel-1 T cells; type: cell-based, mouse; conditions: Table 3; B16F10-Cas9 cells pre-treated with IFNγ, co-cultured with Pmel-1 T cells 1:1 for three days; negative = depleted, positive = enriched

Sequence	OT1 (sgRNA Log(2) fold change, OT-I selection versus control T cells) [1]	Pmel+ (sgRNA Log(2) fold change, Pmel-1 selection versus control T cells) [2]
CAGCAGCAAGTTCACAGGTG (chemistry not fully specified)	-3.04	-1.37
CAGCATTGACAATACGACCA (chemistry not fully specified)	-3.84	0.62
CAGCCTGCTGAGGATCCAGA (chemistry not fully specified)	-2.33	-1.07
CAGGACTTCTGGTCTATCCG (chemistry not fully specified)	-3.14	-1.47
CAGTGTCACAACCCACCGGA (chemistry not fully specified)	-2.75	0.23
CATAGCCAGAACAGTTGACC (chemistry not fully specified)	-2.44	-0.66
CATGAGGTAGAATAGTTCGT (chemistry not fully specified)	-0.65	2.15
CATGCAATACATGCCAAAGG (chemistry not fully specified)	-2.39	-0.22
CCAAACACCCCACATATGGT (chemistry not fully specified)	-2.24	-0.79
CCATATCCAAATAGCCACAG (chemistry not fully specified)	-3.59	-2.19
CCATTGTATAACTGTCTGCG (chemistry not fully specified)	-3.02	-1.14
CCCACGAATTCGTCACAGGG (chemistry not fully specified)	1.32	2.63
CCCGGACTGGATCAACACCG (chemistry not fully specified)	-3.76	-0.09
CCCGGGAATAGCGTACAGCT (chemistry not fully specified)	-2.71	0.70
CCGAGACCCCAATAGTGCAA (chemistry not fully specified)	0.71	2.89
CCGCAGCAGATAGACACCAT (chemistry not fully specified)	-2.54	-0.11
CCGCTCGAAGAAGCACTCCT (chemistry not fully specified)	-3.04	0.95
CCTCCGACATTCCGTAACTG (chemistry not fully specified)	-2.32	-1.90
CCTGGGCTAGCACATAACCA (chemistry not fully specified)	-3.35	0.10
CCTGGGTACCAACTGACGAA (chemistry not fully specified)	-2.91	-2.96
CCTTCAATAACGTTAAACAG (chemistry not fully specified)	-2.79	-0.26
CCTTTAGTAGCAGAAGCCGC (chemistry not fully specified)	-2.95	0.73
CGACGCAAGTGGGAGCAGAG (chemistry not fully specified)	-2.09	3.91
CGATGCCATTCGAATGACAG (chemistry not fully specified)	1.57	8.40
CGGATGGCCACACGTAACAG (chemistry not fully specified)	0.20	3.00
CGGCCCGCCGATGTCGTGTG (chemistry not fully specified)	-3.19	-0.25
